Measurements as given in patent publication US20050009903A1, “CB2-selective cannabinoid analogues” (priority 2003, published 2005).
“And” between values parts separate entries of the source, which are not always exact repeats. Identical values can stand only once. Like-named read-outs stand apart in the source and are kept apart here.

How the values were obtained:
[1] = biological target: T1, CB2 receptor (Homo sapiens, UniProt P34972); assay: CB2 assay: displacement of [3H]CP-55,940 from cloned human CB2 receptor preparation (transfected HEK 293 cells); format: binding; parameters: expressed in transfected cells; conditions: for selectivity for the CB2 receptor: CB2 over CB1 affinity; for Ratio CB17CB2 / Ratio CB1/CB2: ratio of Ki values
T1 sequence (P34972 whole entry): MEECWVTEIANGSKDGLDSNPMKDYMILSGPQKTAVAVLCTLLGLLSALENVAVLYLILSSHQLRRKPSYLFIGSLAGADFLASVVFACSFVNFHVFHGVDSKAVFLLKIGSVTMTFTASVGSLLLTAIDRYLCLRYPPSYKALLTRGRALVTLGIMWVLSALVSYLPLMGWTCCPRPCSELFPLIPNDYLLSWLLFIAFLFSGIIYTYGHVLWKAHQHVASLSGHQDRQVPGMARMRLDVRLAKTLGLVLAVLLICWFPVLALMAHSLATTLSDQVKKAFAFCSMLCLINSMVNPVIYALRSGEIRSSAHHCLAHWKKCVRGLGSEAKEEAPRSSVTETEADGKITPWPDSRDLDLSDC

[2] = biological target: T1, CB2 receptor; assay: [35S]GTPγS binding in human CB2 receptor-expressing CHO cell membranes; format: biochemical; parameters: expressed in transfected cells; conditions: for efficacy in the [35S]GTPγS assay relative to CP-55,940: in words; for Emax (% CP-55940): per cent relative to 3 μM CP-55,940
[3] = biological target: T2, CB1 receptor (Rattus norvegicus, UniProt P20272); assay: CB1 assay: displacement of [3H]CP-55,940 from rat brain membrane preparation; format: binding
T2 construct: from tissue; host or cells: rat whole brain, P2 membranes
T2 sequence (P20272 whole entry): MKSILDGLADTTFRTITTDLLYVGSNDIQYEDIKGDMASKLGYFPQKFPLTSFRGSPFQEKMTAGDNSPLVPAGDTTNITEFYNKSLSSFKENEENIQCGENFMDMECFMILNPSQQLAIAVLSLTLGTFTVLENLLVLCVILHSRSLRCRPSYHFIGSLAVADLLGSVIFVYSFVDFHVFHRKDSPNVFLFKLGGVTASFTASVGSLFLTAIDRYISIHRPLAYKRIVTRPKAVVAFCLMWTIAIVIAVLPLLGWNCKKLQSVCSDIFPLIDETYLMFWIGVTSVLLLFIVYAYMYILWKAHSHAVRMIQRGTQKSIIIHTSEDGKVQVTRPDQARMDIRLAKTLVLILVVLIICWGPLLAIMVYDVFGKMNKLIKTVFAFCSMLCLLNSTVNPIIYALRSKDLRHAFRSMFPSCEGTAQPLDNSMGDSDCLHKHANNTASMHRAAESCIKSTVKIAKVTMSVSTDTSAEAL

[4] = biological target: T1, CB2 receptor; parameters: expressed in transfected cells; conditions: cited from earlier work
[5] = system: glioma tumors; conditions: cited from earlier work
[6] = biological target: T2, CB1 receptor; conditions: cited from earlier work
[7] = system: mouse model of multiple sclerosis; conditions: cited from earlier work
[8] = system: mouse behavioral tetrad; conditions: cited from earlier work
[9] = biological target: T3, CB1 receptor (Homo sapiens, UniProt P21554); conditions: read-out: Ki CB1 receptor; Hanus et al.; cited from earlier work
T3 sequence (P21554 whole entry): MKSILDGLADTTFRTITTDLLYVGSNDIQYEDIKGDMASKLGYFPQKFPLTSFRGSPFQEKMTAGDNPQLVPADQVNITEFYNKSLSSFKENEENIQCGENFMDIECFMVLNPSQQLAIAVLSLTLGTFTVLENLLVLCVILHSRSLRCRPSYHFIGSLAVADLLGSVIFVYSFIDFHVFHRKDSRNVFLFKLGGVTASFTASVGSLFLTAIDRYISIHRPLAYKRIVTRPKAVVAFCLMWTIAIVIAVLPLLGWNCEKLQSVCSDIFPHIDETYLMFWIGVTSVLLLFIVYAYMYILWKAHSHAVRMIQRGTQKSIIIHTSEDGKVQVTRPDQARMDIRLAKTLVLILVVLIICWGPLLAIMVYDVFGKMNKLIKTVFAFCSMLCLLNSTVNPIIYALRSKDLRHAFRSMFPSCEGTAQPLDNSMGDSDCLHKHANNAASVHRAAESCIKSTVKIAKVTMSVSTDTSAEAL

[10] = blocked by CB2 antagonist SR-144528; cited from earlier work
[11] = blocked by CB2 antagonist SR-144528; cited from earlier work; remark: listed apart in the source
[12] = biological target: T1, CB2 receptor
[13] = biological target: T3, CB1 receptor; conditions: Gareau et al.; cited from earlier work
[14] = system: mouse vas deferens; conditions: cited from earlier work
[15] = Ki at CB2 receptor, cloned human CB2
[16] = rat brain membranes, read-out: Ki at CB1 receptor
[17] = cloned human CB2, read-out: Ki at CB2 receptor
[18] = read-out: Emax relative to CP-55,940
[19] = previously reported by the applicants (literature refs), read-out: Ki at CB1 receptor
[20] = previously reported by the applicants (literature refs), read-out: Ki at CB2 receptor
[21] = Table 1, mean ± SEM, values marked ref 8, 19 or 20, read-out: Ki CB1
[22] = Ki CB2, Table 1, mean ± SEM, cloned human CB2, [3H]CP 55,940
[23] = Table 2, mean ± SEM, 3-(alkyl-1-naphthoyl)indoles, read-out: Ki CB2
[24] = Table 2, mean ± SEM, 3-(alkyl-1-naphthoyl)indoles, read-out: Ki CB1

CCCCCn1cc(C(=O)c2c(OC)ccc3ccccc23)c2ccccc21 [JWH-267, 1-Pentyl-3-(2-methoxy-1-naphthoyl)indole]
selectivity for the CB2 receptor [1]: 53 fold | Ki [1, 15]: 7.35 nM | Ki ([1]; Table 3, mean ± SEM, 3-(alkoxy-1-naphthoyl)indoles, the same values as Ki in nM, read-out: CB2 (receptor affinity)): 7.2 ± 0.14 nM | EC50 [2]: 4.9 ± 0.8 nM | efficacy in the [35S]GTPγS assay relative to CP-55,940 [2]: partial agonists | Emax ([2]; read-out: Emax (% CP-55940)): 67.3 ± 2.9% | Ki [3, 16]: 381 ± 16 nM

CCCn1cc(C(=O)c2ccc(C)c3ccccc23)c2ccccc21 [JWH-120, 1-Propyl-3-(4-methyl-1-naphthoyl)indole]
selectivity for the CB2 receptor [1]: 173 fold | Ratio CB17CB2 ([1]; Table 2): 173 | Ki [1, 17]: 6.1 ± 7 nM | EC50 [2]: 5.1 ± 1.6 nM | efficacy in the [35S]GTPγS assay relative to CP-55,940 [2]: partial agonists | Emax ([2]; read-out: Emax (% CP-55940)): 78.1 ± 10.7% | Emax [2, 18]: 78.1 ± 10.7% | Ki [3, 16]: 1050 ± 31 nM

CCCn1c(C)c(C(=O)c2cccc3cc(OC)ccc23)c2ccccc21 [JWH-151, 2-Methyl-1-propyl-3-(6-methoxy-1-naphthoyl)indole]
selectivity for the CB2 receptor [1]: > 333 fold | Ki [1, 17]: 30 ± 1 nM | EC50 [2]: 12 ± 2.9 nM | efficacy in the [35S]GTPγS assay relative to CP-55,940 [2]: highly efficacious | Emax ([2]; read-out: Emax (% CP-55940)): 108 ± 13% | Emax [2, 18]: 108 ± 13% | Ki [3]: > 10000 nM | Ki ([3]; read-out: CB1 (receptor affinity), Table 3, mean ± SEM, 3-(alkoxy-1-naphthoyl)indoles, the same values as Ki in nM): > 10000 nM

CCCC(C)(C)c1ccc2c(c1)OC(C)(C)C1CC=C(C)CC21 (centres unmarked) [Compound 3, 3-(1′,1′-Dimethylbutyl)-1-deoxy-Δ^8-THC, reference compound]
Ratio CB1/CB2 ([1]; Table 1): 199 | Emax relative to CP-55,940 [2]: 111.5±13.6% | Emax (% CP-55940) ([2]; Table 4, mean ± SEM): 111.5 ± 13.6 % CP-55940 | efficacy in the [35S]GTPγS assay relative to CP-55,940 [2]: highly efficacious | EC50 ([2]; read-out: EC50 in the [35S]GTPγS assay): 4 ± 1 nM | Ki ([4]; previously reported by the applicants (literature refs), listed as JWH-133, read-out: Ki at CB2 receptor): 3.4 ± 1 nM | in vivo growth of glioma tumors [5]: inhibits the in vivo growth of glioma tumors | Ki [6, 19]: 677 ± 132 nM | reduction of spasticity [7]: effective in reducing spasticity

1-Methoxy-3-(1′,1′-dimethylhexyl)-Δ^8-THC [Compound 6e]
EC50 ([2]; Table 4, mean ± SEM, human CB2 CHO cells, read-out: EC50 GTPγS binding): 4.6 ± 2 nM | Emax (% CP-55940) ([2]; Table 4, mean ± SEM): 75.7 ± 8.3 % CP-55940

CCCn1cc(C(=O)c2c(OC)ccc3ccccc23)c2ccccc21 [JWH-265, 1-Propyl-3-(2-methoxy-1-naphthoyl)indole]
Ki [1, 17]: 80 ± 13 nM | melting point: 117 to 119 °C | Ki ([3]; Table 3, mean ± SEM, 3-(alkoxy-1-naphthoyl)indoles, the same values as Ki in nM, read-out: CB1 (receptor affinity)): 3790 ± 323 nM

CCCCCCC(C)(C)c1cc(OC)c([C@@H]2C=C(CO)[C@@H]3C[C@H]2C3(C)C)c(OC)c1 [HU-308]
activity in the mouse behavioral tetrad [8]: inactive | Ki [9]: > 10000 nM | effect on blood pressure [10]: reduces blood pressure | peripheral analgesic activity [11]: shows peripheral analgesic activity

CCCCCCC(C)(C)c1ccc2c(c1)OC(C)(C)C1CC=C(CO)CC21 (centres unmarked) [Compound 1, 1-Deoxy-11-hydroxy-3-(1′,1′-dimethylheptyl)-Δ^8-THC]
Ratio CB1/CB2 ([1]; Table 1): 40 | Ki ([4]; Table 1, mean ± SEM, values marked ref 30, 19 or 20, read-out: Ki CB2): 0.03 ± 0.02 nM | Ki [4, 20]: 0.032 nM | Ki [6, 21]: 1.2 ± 0.1 nM | Ki [6, 19]: 1.2 nM

CCCCCCC(C)(C)c1cc(OC)c2c(c1)OC(C)(C)[C@@H]1CC=C(C)C[C@@H]21 [Compound 4, 3-(1′,1′-Dimethylheptyl)-1-methoxy-Δ^8-THC, reference compound]
Ki [1, 15]: 57 nM | Ratio CB1/CB2 ([1]; Table 1): 12 and 14 | Ki ([4]; read-out: Ki at CB2 receptor, previously reported by the applicants (literature refs)): 65 ± 8 nM | Ki ([12]; read-out: Ki at CB2; Gareau et al.; cited from earlier work): ~20 nM | Ki ([6]; read-out: Ki at CB1 receptor, previously reported by the applicants (literature refs)): 924 ± 104 nM | Ki [3]: 713 nM | Ki at CB1 [13]: virtually no affinity

COc1ccc(C(=O)c2c(C)n(CCN3CCOCC3)c3ccccc23)cc1 [pravadoline]
contractions of electrically stimulated mouse vas deferens [14]: inhibited contractions

C=C1CCC2C(C1)c1c(OC)cc(C(C)(C)CCCCCC)cc1OC2(C)C (centres unmarked) [Compound 5, 1-methoxy-66 ^9(11)-THC-DMH]
Ki ([12]; Gareau et al.; read-out: Ki at CB2; cited from earlier work): ~20 nM | Ki at CB1 [13]: virtually no affinity

CCCCCn1c(C)c(C(=O)c2cccc3ccccc23)c2ccccc21 [JWH-007, 1-pentyl-2-methyl-3-(1-naphthoyl)indole]
Ratio CB17CB2 ([1]; Table 2): 3.3 | Ki ([4]; read-out: Ki CB2, Table 2, mean ± SEM, values marked with literature refs): 2 ± 2.6 nM

CCCCCCC(C)(C)c1ccc2c(c1)OC(C)(C)C1CC=C(C)CC21 (centres unmarked) [Compound 2, 1-Deoxy-3-(1′,1′-dimethylheptyl)-Δ^8-THC]
Ratio CB1/CB2 ([1]; Table 1): 7.9 | Ki [4, 20]: 2.9 nM | Ki [6, 21]: 22.8 ± 7.3 nM | Ki [6, 19]: 23 nM

CCCn1c(C)c(C(=O)c2cccc3ccccc23)c2ccccc21 [JWH-015, 2-Methyl-1-propyl-3-(1-naphthoyl)indole]
Emax ([2]; read-out: Emax (% CP-55940)): 65.7 ± 6.4% | Emax [2, 18]: 65.7 ± 6.4%

CCCCC(C)(C)c1cc(OC)c2c(c1)OC(C)(C)[C@@H]1CC=C(C)C[C@@H]21 [Compound 6d, 1-Methoxy-3-(1′,1′-dimethylpentyl)-Δ^8-THC]
Ki [1, 22]: 43 ± 3 nM | Ratio CB1/CB2 ([1]; Table 1): 93 | Ki [3]: 4000 ± 282 nM

CCCC(C)(C)c1ccc2c(c1)OC(C)(C)[C@@H]1CC=C(CO)C[C@@H]21 [Compound 9c, 1-Deoxy-3-(1′,1′-dimethylbutyl)-11-hydroxy-Δ^8-THC]
Ki [1, 22]: 3.4 ± 0.5 nM | Ratio CB1/CB2 ([1]; Table 1): 25 | Ki [3]: 84 ± 16 nM

CCCc1ccc(C(=O)c2cn(CCC)c3ccccc23)c2ccccc12 [JWH-180, 1-Propyl-3-(4-propyl-1-naphthoyl)indole]
Ki [1, 23]: 9.6 ± 2 nM | Ratio CB17CB2 ([1]; Table 2): 2.7 | Ki [3, 24]: 26 ± 2 nM

CCCn1c(C)c(C(=O)c2ccc(CC)c3ccccc23)c2ccccc21 [JWH-211, 2-Methyl-1-propyl-3-(4-ethyl-1-naphthoyl)indole]
Ratio CB17CB2 ([1]; Table 2): 5.8 | Ki [1, 17]: 12 ± 0.8 nM | Ki [3, 16]: 70 ± 0.8 nM

CCCCCn1c(C)c(C(=O)c2cccc3ccc(CC)cc23)c2ccccc21 [JWH-262, 2-Methyl-1-pentyl-3-(7-ethyl-1-naphthoyl)indole]
Ki [1, 23]: 5.6 ± 0.7 nM | Ratio CB17CB2 ([1]; Table 2): 5.0 | Ki [3, 24]: 28 ± 3 nM

CCCn1cc(C(=O)c2cccc3ccc(OC)cc23)c2ccccc21 [JWH-165, 1-Propyl-3-(7-methoxy-1-naphthoyl)indole]
Ki [1, 17]: 71 ± 8 nM | Ki [3, 16]: 204 ± 26 nM

CCC(C)(C)c1cc(OC)c2c(c1)OC(C)(C)C1CC=C(CO)CC21 (centres unmarked) [Compound 11b, 1-Methoxy-3-(1′,1′-dimethylpropyl)-11-hydroxy-Δ^8-THC]
Ki ([1]; Table 1, mean ± SEM, cloned human CB2, [3H]CP 55,940, read-out: Ki CB2): 85 ± 21 nM | Ratio CB1/CB2 ([1]; Table 1): 12 | Ki ([3]; Table 1, mean ± SEM, rat brain membranes, [3H]CP 55,940, read-out: Ki CB1): 1010 ± 117 nM

COc1cc(C(C)(C)C)cc2c1[C@@H]1CC(CO)=CC[C@H]1C(C)(C)O2 [Compound 11a, 1-Methoxy-3-(1′,1′-dimethylethyl)-11-hydroxy-Δ^8-THC]
Ki [1, 15]: 333 ± 104 nM | Ratio CB1/CB2 ([1]; Table 1): 5.6 | Ki [3]: 1860 ± 148 nM

CCCCCn1c(C)c(C(=O)c2cccc3ccc(OC)cc23)c2ccccc21 [JWH-159, 2-Methyl-1-pentyl-3-(7-methoxy-1-naphthoyl)indole]
Ki [1, 17]: 10.4 ± 1.4 nM | Ki [3, 16]: 45 ± 1 nM
